# Assay results reported in ChEMBL document CHEMBL5523733, “Small Molecule Targeting PPM1A Activates Autophagy for Mycobacterium tuberculosis Host-Directed Therapy” (J Med Chem, 2024).
# Assays:
# Protein phosphatase 1A = biological target: T1, Protein phosphatase 1A (Homo sapiens, UniProt P35813); experiment: Inhibition of recombinant human PPM1A using pNPP as substrate preincubated for 15 mins followed by substrate addition measured after 20 mins by absorbance based assay
# T1 sequence (P35813 whole entry): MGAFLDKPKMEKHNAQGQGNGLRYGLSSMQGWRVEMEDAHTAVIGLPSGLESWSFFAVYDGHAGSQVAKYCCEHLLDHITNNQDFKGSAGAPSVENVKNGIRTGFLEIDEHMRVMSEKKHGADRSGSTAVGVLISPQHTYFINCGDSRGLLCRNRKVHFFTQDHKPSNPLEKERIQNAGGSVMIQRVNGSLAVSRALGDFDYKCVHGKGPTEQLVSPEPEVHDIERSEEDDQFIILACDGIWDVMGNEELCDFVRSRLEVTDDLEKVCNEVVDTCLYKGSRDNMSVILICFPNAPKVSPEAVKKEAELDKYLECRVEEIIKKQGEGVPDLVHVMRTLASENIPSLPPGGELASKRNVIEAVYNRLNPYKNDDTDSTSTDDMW
# [1] = Cytotoxicity against human Caco-2 cells by resazurin dye based assay; format: toxicity, cell-based
# [2] = Cytotoxicity against human THP-1 cells by resazurin dye based assay; format: toxicity, cell-based
smiles,measurement,setting,value
COc1ccc2c(c1)c[n+](CCO)c1ccccc21,IC50,Protein phosphatase 1A,> 20 µM
Cc1ccc2c(c1)c[n+](CCO)c1ccc(F)cc21,IC50,Protein phosphatase 1A,> 20 µM
COc1ccc2c(c1)c[n+](Cc1cccc(O)c1)c1ccc(F)cc21,IC50,Protein phosphatase 1A,> 20 µM
CCOc1ccc2c(c1)c[n+](CCO)c1ccc(OC)cc21,IC50,Protein phosphatase 1A,> 20 µM
COc1ccc2c(c1)c1ccc(OC(F)(F)F)cc1c[n+]2CCO,IC50,Protein phosphatase 1A,3.06 µM
COc1cc2c[n+](CCO)c3ccc(F)cc3c2cc1-c1ccc(F)cc1,IC50,Protein phosphatase 1A,> 20 µM
COc1ccc2c(c1)c[n+](CCO)c1ccc(OC)cc21,IC50,Protein phosphatase 1A,2.6 µM
same,CC50,[1],> 200 µM
same,CC50,[2],47.2 µM
COc1ccc2c(c1)c[n+](CCO)c1cc(F)ccc21,IC50,Protein phosphatase 1A,> 20 µM
CCCCOc1ccc2c(c1)c[n+](CCO)c1ccc(F)cc21,IC50,Protein phosphatase 1A,3.56 µM
COc1ccc2c(c1)c[n+](C(C)CO)c1ccc(F)cc21 (stereo not drawn),IC50,Protein phosphatase 1A,> 10 µM
COc1ccc(-c2cc3c(cc2OC)c[n+](CCO)c2ccc(F)cc32)cc1,IC50,Protein phosphatase 1A,0.29 µM
same,CC50,[1],74.6 µM
same,CC50,[2],37.2 µM
COc1cc2c[n+](CCO)c3ccc(F)cc3c2cc1OC,IC50,Protein phosphatase 1A,> 20 µM
CC(C)COc1ccc2c(c1)c[n+](CCO)c1ccc(F)cc21,IC50,Protein phosphatase 1A,> 20 µM
OCC[n+]1cccc2cc(F)ccc21,IC50,Protein phosphatase 1A,> 20 µM
COC(=O)c1cccc(-c2cc3c(cc2OC)c[n+](CCO)c2ccc(F)cc32)c1,IC50,Protein phosphatase 1A,> 20 µM
COc1cc2c[n+](CCO)c3ccc(F)cc3c2cc1-c1cc(C)cc(C)c1,IC50,Protein phosphatase 1A,> 20 µM
COc1ccc2cc[n+](CCO)cc2c1,IC50,Protein phosphatase 1A,> 20 µM
COc1ccc2c(c1)c[n+](CCO)c1ccc(Cl)cc21,IC50,Protein phosphatase 1A,> 20 µM
COc1cc2c[n+](CCO)c3ccc(F)cc3c2cc1-c1ccc(NC(=O)OC(C)(C)C)cc1,IC50,Protein phosphatase 1A,> 20 µM
